Measured values reported in patent US8362075B2, “Cyclohexyl sulphones for treatment of cancer” (Merck Sharp & Dohme Corp., priority 2005, dated 2013).

System: Cells expressing Notch (ALL-SIL, DND-41, HPB-ALL or TALL-1)
Test: Assay for Cell Cycle Arrest (propidium iodide, FACS)
Type: cell-based
Conditions: concentrations up to 10 μM, incubation typically 4-8 days
Method: Assay for Cell Cycle Arrest Cells expressing Notch (ALL-SIL, DND-41, HPB-ALL or TALL-1) (Weng et al, Science, 306 (2004), 269-71) were incubated in the presence or absence of a compound of the instant invention (e.g. the compound of Example 39 below) at concentrations up to 10 μM. At the end of the incubation (typically 4-8 days), the cells were collected, fixed in 70% ethanol on ice for >2 hours, washed, then labelled for 15 min at 37° C. with propidium iodide (0.2 mg/ml) (PI) in the presence of 0.1% Triton X100 and 0.2 mg/ml RNase and subjected to FACS analysis. […] Assay for Apoptosis

O=C(O)CC[C@H]1CC[C@@](c2cc(F)ccc2F)(S(=O)(=O)c2ccc(Cl)cc2)CC1 [Example 39, cis-4-[(4-chlorophenyl)sulfonyl]-4-(2,5-difluorophenyl)cyclohexanepropanoic acid]
cell cycle populations versus untreated controls: severe loss of G2- and S-phase populations, consistent with G0/G1 arrest
